Like-named read-outs stand apart in the source and are kept apart here.
Key:
Type in all cases: cell-based
[1] = tested on: HTT mRNA; test: RT-qPCR splicing assay, HTT canonical (CJ) and alternative (AJ) junction mRNA; conditions: Homo sapiens; for IC50: read-out: HTT CJ IC50; for AC50: read-out: HTT AJ AC50
Experimental: (§1) Compounds described herein were used to modulate RNA transcript abundance in cells. The expression of a target mRNA was measured by detecting the formation of an exon-exon junction in the canonical transcript (CJ). A compound mediated exon-inclusion event was detected by observing an increase in formation of a new junction with an alternative exon (AJ). Real-time qPCR assays were used to detect these splicing switches and interrogate the potency of various compounds towards different target genes. A high-throughput real time quantitative PCR (RT-qPCR) assay was developed to measure these two isoforms of the mRNA (CJ and AJ) for exemplary genes, such as HTT, SMN2, and MYB, together with a control housekeeping gene, GAPDH or GUSB or PPIA, used for normalization. Briefly, the A673 or K562 cell line was treated with various compounds described herein (e.g., compounds of Formula (I)). After treatment, the levels of the HTT, MYB, or SMN2 mRNA targets were determined from each sample of cell lysate by cDNA synthesis followed by qPCR.
(§2) • Cells-to-CT 1-step kit: ThermoFisher A25602, Cells-to-CT lysis reagent: ThermoFisher 4391851C, TaqMan™ Fast Virus 1-Step Master Mix: ThermoFisher 4444436 • GAPDH: VIC-PL, ThermoFisher 4326317E (Assay: Hs99999905_m1)—used for K562/suspension cell lines • GUSB: VIC-PL, ThermoFisher 4326320E (Assay: Hs99999908_m1)—used for K562/suspension cell lines • PPIA: VIC-PL, ThermoFisher 4326316E (Assay: Hs99999904_m1)—used for A673/adherent cell lines
(§3) The A673 cell line was cultured in DMEM with 10% FBS. Cells were diluted with full growth media and plated in a 96-well plate (15,000 cells in 100 ul media per well). The plate was incubated at 37° C. with 5% CO2 for 24 hours to allow cells to adhere. An 11-point 3-fold serial dilution of the compounds was made in DMSO then diluted in media in an intermediate plate. Compounds were transferred from the intermediate plate to the cell plate with the top dose at a final concentration of 10 uM in the well. Final DMSO concentration was kept at or below 0.25%. The cell plate was returned to the incubator at 37° C. with 5% CO2 for an additional 24 hours.
(§4) The K562 cell line was cultured in IMDM with 10% FBS. For K562, cells were diluted with full growth media and plated in either a 96-well plate (50,000 cells in 50 uL media per well) or a 384-well plate (8,000-40,000 cells in 45 uL media per well). An 11-point 3-fold serial dilution of the compounds were made in DMSO then diluted in media in an intermediate plate. Compound was transferred from the intermediate plate to the cell plate with the top dose at a final concentration of 10 uM in the well. Final DMSO concentration was kept at or below 0.25%. Final volume was 100 uL for 96-well plate and 50 uL for 384-well plate. The cell plate was then placed in an incubator at 37° C. with 5% CO2 for 24 hours.
(§5) The cells were then gently washed with 50 uL-100 uL cold PBS before proceeding to addition of lysis buffer. 30 uL-50 μL of room temperature lysis buffer with DNAse I (and optionally RNAsin) was added to each well. Cells were shaken/mixed thoroughly at room temperature for 5-10 minutes for lysis to take place and then 3 uL-5 μL of room temperature stop solution was added and wells were shaken/mixed again. After 2-5 minutes, the cell lysate plate was transferred to ice for RT-qPCR reaction setup. The lysates could also be frozen at −80° C. for later use.
(§6) In some cases, a direct lysis buffer was used. An appropriate volume of 3× lysis buffer (10 mM Tris, 150 mM NaCl, 1.5%-2.5% Igepal and 0.1-1 U/uL RNAsin, pH 7.4) was directly added to either K562 or A673 cells in media and mixed by pipetting 3 times. The plates were then incubated at room temperature with shaking/rocking for 20-50 minutes to allow for lysis to take place. After this time, the cell lysate plate was transferred to ice to set up for the RT-qPCR reactions. The lysates could also be frozen at −80° C. for later use. […]

[2] = tested on: MYB mRNA; test: RT-qPCR splicing assay, MYB canonical (CJ) and alternative (AJ) junction mRNA; conditions: Homo sapiens; for IC50: read-out: MYB CJ IC50; for AC50: read-out: MYB AJ AC50
Experimental: as §1, §2, §3, §4, §5, §6

[3] = tested on: Target C; test: RT-qPCR splicing assay, gene panel, Target C canonical junction (CJ) mRNA; conditions: Homo sapiens, read-out: Target C CJ IC50
Experimental: as §1, §3, §4, §5
(§7) In some cases, a direct lysis buffer was used. An appropriate volume of 3× lysis buffer (10 mM Tris, 150 mM NaCl, 1.5%-2.5% Igepal and 0.1-1 U/uL RNAsin, pH 7.4) was directly added to either K562 or A673 cells in media and mixed by pipetting 3 times. The plates were then incubated at room temperature with shaking/rocking for 20-50 minutes to allow for lysis to take place. After this time, the cell lysate plate was transferred to ice to set up for the RT-qPCR reactions. The lysates could also be frozen at −80° C. for later use.
(§8) To set up 10 uL RT-qPCR reactions, cell lysates were transferred to 384-well qPCR plates containing the master mix according to the table below. The plates were sealed, gently vortexed, and spun down before the run. The volumes were adjusted accordingly in some instances where the reaction was carried in 20 μL. The table below summarizes the components of the RT-qPCR reactions:
(§9) The RT-qPCR reaction was performed using a QuantStudio (ThermoFisher) under the following fast cycling conditions. […]

[4] = tested on: SMN2 mRNA; test: RT-qPCR splicing assay, gene panel, SMN2 canonical junction (CJ) mRNA; conditions: Homo sapiens, read-out: SMN2 CJ IC50
Experimental: as §1, §3, §4, §5, §7, §8, §9

[5] = decrease in CJ mRNA levels, larger panel of genes, Table 3
[6] = decrease in canonical junction mRNA, A673 or K562 cells, 24 hours treatment, Table 2
[7] = increase in alternative junction mRNA, A673 or K562 cells, 24 hours treatment, Table 2

Cc1cn2nc(-c3cc4cn(C5CCNCC5)nc4c(O)n3)cc(C)c2n1 [Compound 139, 5-(2,8-dimethylimidazo[1,2-b]pyridazin-6-yl)-2-(4-piperidyl)-6H-pyrazolo[3,4-c]pyridin-7-one]
IC50 [1, 5]: < 100 nM
IC50 [1, 6]: < 100 nM
AC50 [1, 7]: < 100 nM
IC50 [2, 5]: 100 to 1000 nM
IC50 [2, 6]: 100 to 1000 nM
AC50 [2, 7]: 100 to 1000 nM
IC50 [3, 5]: 100 to 1000 nM
IC50 [4, 5]: < 100 nM

Cn1cc2cc(-c3cc(Cl)c4nn(C5CCNCC5)cc4n3)c(O)cc2n1 [Compound 141]
IC50 [1, 5]: > 10000 nM
IC50 [1, 6]: > 10000 nM
AC50 [1, 7]: > 10000 nM
IC50 [2, 5]: > 10000 nM
IC50 [2, 6]: > 10000 nM
AC50 [2, 7]: > 10000 nM
IC50 [3, 5]: > 10000 nM
IC50 [4, 5]: 1000 to 10000 nM

Cc1cn2nc(-c3cc(F)c4nn(C5CCN(C)CC5)cc4c3)cc(C)c2n1 [Compound 150, 6-[7-fluoro-2-(1-methyl-4-piperidyl)indazol-5-yl]-2,8-dimethyl-imidazo[1,2-b]pyridazine]
IC50 [1, 5]: < 100 nM
IC50 [1, 6]: < 100 nM
AC50 [1, 7]: < 100 nM
IC50 [2, 5]: 100 to 1000 nM
IC50 [2, 6]: 100 to 1000 nM
AC50 [2, 7]: 100 to 1000 nM
IC50 [3, 5]: 100 to 1000 nM
IC50 [4, 5]: < 100 nM

Cc1cn2nc(-c3cc(F)c4nn(C5CCN(C6CCC6)CC5)cc4c3)cc(C)c2n1 [Compound 151, 6-[2-(1-cyclobutyl-4-piperidyl)-7-fluoro-indazol-5-yl]-2,8-dimethyl-imidazo [1,2-b] pyridazine]
AC50 ([1]; 24 h): < 100 nM
IC50 ([1]; 24 h): < 100 nM
IC50 [1]: < 100 nM
AC50 ([2]; 24 h): 100 to 1000 nM
IC50 ([2]; 24 h): < 100 nM
IC50 [2]: < 100 nM
IC50 [3]: < 100 nM
IC50 [4]: < 100 nM

Cc1cn2nc(-c3cc(F)c4nn(C5CCN(CCF)CC5)cc4c3)cc(C)c2n1 [Compound 152]
IC50 [1, 5]: < 100 nM
IC50 [1, 6]: < 100 nM
AC50 [1, 7]: 100 to 1000 nM
IC50 [2, 5]: 100 to 1000 nM
IC50 [2, 6]: 100 to 1000 nM
AC50 [2, 7]: 100 to 1000 nM
IC50 [3, 5]: 100 to 1000 nM
IC50 [4, 5]: < 100 nM

Cc1cn2nc(-c3cc4cn(C5CCNCC5)nc4c(OCc4ccccc4)n3)cc(C)c2n1 [Compound 153, 6-[7-benzyloxy-2-(4-piperidyl)pyrazolo [3,4-c]pyridin-5-yl]-2,8-dimethyl-imidazo[1,2-b]pyridazine]
IC50 [1, 5]: > 10000 nM
IC50 [1, 6]: > 10000 nM
AC50 [1, 7]: 1000 to 10000 nM
IC50 [2, 5]: 1000 to 10000 nM
IC50 [2, 6]: 1000 to 10000 nM
AC50 [2, 7]: > 10000 nM
IC50 [3, 5]: > 10000 nM
IC50 [4, 5]: > 10000 nM

Reference: US20250082633A1, “COMPOUNDS AND METHODS FOR MODULATING SPLICING” (REMIX THERAPEUTICS INC., priority 2021, published 2025)
